In patent publication US10556914B2, “Substituted isoxazolopyridazinones and isothiazolopyridazinones and methods of use” (AbbVie Inc., priority 2015, dated 2020):
pEC50: −log10 of the molar value.

The molecules below were run against GABA-B receptor (Rattus norvegicus (Rat), UniProt O88871+Q9Z0U4) (assay: [35S]GTPgS Binding Assay (rat brain cortex membranes, native receptor)). Conditions: rat cortical membranes; in the presence of 1 μM GABA (EC25); basal binding 0%, maximal binding (1 mM GABA) 100%.
Format: biochemical
Protocol: Preparation of Rat Brain Membranes for Native Receptor Assays
Membranes from rat brain cortex were prepared as described in detail by Olpe et al. and stored at concentrations of 1.66 mg/mL protein at −80° C. until required. (Olpe, H.-R, et al. Eur J Pharmacol 1990; 187: 27-38).
[^35S]GTPgS Binding Assay
The samples were incubated at room temperature for 60 minutes on a shaker. The incubation was stopped by rapid vacuum filtration over glass-fiber filter plates (UniFilter-96 well, GF/B membrane plates, PerkinElmer) using a 96-well plate harvester (TOMTEK© Harvester). The UniFilter plate was washed five times with ice-cold wash buffer (50 mM Tris-HCl buffer, pH 7.7, 10 mM MgCl2, and 100 mM NaCl. After filtration the plate was dried for 90 minutes at 55° C. The plates were closed on the bottom with black sealing membranes, and liquid scintillation cocktail (35 μL, Betaplate Scint, PerkinElmer) was added to each well. After sealing the top of the plate, an additional incubation step of 90 minutes at room temperature followed before measuring the plate. The amount of membrane-bound [^35S]GTPgS was measured using a 96-well plate reader (Microbeta®, PerkinElmer). Nonspecific binding was measured in the presence of unlabeled 10 μM of GTPgS (Millipore) and without GABA. Basal binding was measured in the absence of 1 μM GABA, and maximal binding was measured in the presence of GABA using 1 mM GABA concentrations.
Data analysis. The concentration-response curves of compounds of the present disclosure in the presence of EC25 of GABA-B receptor agonist were generated using the GraphPad Prism® program (GraphPad Software, San Diego, Calif.). Data was normalized using basal binding as 0% and maximal binding as 100%. The curves were fitted by nonlinear regression allowing determination of EC50 values from sigmoidal dose-response curves. Each curve was performed using triplicate sample per date point and 10 concentrations.

Chain of GABA-B receptor (Q9Z0U4 17-960): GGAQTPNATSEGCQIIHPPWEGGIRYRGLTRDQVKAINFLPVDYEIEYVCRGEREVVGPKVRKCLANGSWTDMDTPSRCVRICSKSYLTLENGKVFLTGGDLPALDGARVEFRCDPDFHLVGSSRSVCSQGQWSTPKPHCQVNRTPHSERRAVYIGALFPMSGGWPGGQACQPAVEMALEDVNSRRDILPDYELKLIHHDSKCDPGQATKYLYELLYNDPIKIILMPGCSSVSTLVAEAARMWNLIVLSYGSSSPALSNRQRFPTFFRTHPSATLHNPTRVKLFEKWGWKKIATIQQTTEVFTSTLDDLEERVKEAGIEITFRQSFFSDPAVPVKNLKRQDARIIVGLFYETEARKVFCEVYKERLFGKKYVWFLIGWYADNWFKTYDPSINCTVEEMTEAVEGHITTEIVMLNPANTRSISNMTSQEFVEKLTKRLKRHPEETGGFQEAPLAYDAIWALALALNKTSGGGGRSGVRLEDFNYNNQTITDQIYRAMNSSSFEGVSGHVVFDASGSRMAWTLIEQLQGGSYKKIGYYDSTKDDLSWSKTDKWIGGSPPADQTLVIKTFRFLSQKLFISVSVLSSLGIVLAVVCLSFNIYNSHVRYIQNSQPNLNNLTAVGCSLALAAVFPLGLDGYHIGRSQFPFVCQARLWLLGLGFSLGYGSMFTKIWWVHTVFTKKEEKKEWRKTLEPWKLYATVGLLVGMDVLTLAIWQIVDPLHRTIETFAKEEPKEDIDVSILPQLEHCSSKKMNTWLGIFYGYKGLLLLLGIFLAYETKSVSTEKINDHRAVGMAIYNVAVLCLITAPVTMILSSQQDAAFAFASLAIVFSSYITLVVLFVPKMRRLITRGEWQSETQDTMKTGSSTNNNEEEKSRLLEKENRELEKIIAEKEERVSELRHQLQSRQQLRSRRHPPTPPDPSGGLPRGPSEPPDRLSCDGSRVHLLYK
Chain of GABA-B receptor (O88871 41-940): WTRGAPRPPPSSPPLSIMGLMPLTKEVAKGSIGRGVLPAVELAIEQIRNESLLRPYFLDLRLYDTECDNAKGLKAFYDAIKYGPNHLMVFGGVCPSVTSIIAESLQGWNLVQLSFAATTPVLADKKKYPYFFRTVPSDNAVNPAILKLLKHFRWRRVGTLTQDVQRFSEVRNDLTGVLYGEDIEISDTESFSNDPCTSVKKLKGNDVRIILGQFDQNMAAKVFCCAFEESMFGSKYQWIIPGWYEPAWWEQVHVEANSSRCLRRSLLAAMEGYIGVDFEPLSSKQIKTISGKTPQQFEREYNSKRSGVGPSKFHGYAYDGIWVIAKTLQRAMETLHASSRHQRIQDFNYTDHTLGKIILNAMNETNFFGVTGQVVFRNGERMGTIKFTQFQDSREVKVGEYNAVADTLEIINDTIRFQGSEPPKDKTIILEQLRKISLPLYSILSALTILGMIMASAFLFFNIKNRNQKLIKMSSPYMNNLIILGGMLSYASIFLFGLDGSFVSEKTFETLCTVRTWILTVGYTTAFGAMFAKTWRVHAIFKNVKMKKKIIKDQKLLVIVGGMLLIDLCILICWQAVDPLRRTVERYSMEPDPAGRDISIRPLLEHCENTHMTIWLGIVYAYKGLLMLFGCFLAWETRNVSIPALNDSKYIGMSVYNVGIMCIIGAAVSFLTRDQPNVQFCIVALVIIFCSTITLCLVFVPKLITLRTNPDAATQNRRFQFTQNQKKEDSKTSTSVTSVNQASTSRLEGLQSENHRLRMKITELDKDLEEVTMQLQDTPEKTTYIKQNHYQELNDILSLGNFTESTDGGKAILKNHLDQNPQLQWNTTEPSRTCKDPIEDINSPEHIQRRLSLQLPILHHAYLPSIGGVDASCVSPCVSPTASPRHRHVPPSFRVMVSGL

Row | SMILES | pEC50
1 | COc1ccc(NC(C)=O)cc1-c1nn(Cc2ccc(Cl)cc2)c(=O)c2c(C)noc12 [Example 45, N-{3-[5-(4-chlorobenzyl)-3-methyl-4-oxo-4,5-dihydro[1,2]oxazolo[4,5-d]pyridazin-7-yl]-4-methoxyphenyl}acetamide] | 6.42
2 | COc1ccc(OC)c(-c2nn([C@@H](C)c3ccc(Cl)cc3)c(=O)c3c(C4CC4)noc23)c1 [Example 68, 5-[(1S)-1-(4-chlorophenyl)ethyl]-3-cyclopropyl-7-(2,5-dimethoxyphenyl)[1,2]oxazolo[4,5-d]pyridazin-4(5H)-one] | 7.32
3 | COCc1noc2c(-c3cccc(NC(C)=O)c3)nn(Cc3ccc(Cl)cc3)c(=O)c12 [Example 27, N-{3-[5-(4-chlorobenzyl)-3-(methoxymethyl)-4-oxo-4,5-dihydro[1,2]oxazolo[4,5-d]pyridazin-7-yl]phenyl}acetamide] | 5.49
4 | CC(=O)Nc1ccc(C)c(-c2nn([C@H](C)c3ccc(C(F)(F)F)cc3)c(=O)c3c(C)noc23)c1 [Example 35, N-[4-methyl-3-(3-methyl-4-oxo-5-{(1R)-1-[4-(trifluoromethyl)phenyl]ethyl}-4,5-dihydro[1,2]oxazolo[4,5-d]pyridazin-7-yl)phenyl]acetamide] | 6.25
5 | Cc1noc2c(-c3cccs3)nn(Cc3ccc(Cl)cc3)c(=O)c12 [Example 56, 5-(4-chlorobenzyl)-3-methyl-7-(thiophen-2-yl)[1,2]oxazolo[4,5-d]pyridazin-4(5H)-one] | 6.01
6 | CCc1nn([C@H](c2ccccc2)c2ccc(Cl)cc2)c(=O)c2c(CC)noc12 (single isomer, unassigned) [Example 75] | 5.75
7 | COc1ccccc1-c1nn(Cc2ccc(Cl)cc2)c(=O)c2c(C)noc12 [Example 67, 5-(4-chlorobenzyl)-7-(2-methoxyphenyl)-3-methyl[1,2]oxazolo[4,5-d]pyridazin-4(5H)-one] | 5.67
8 | COc1ccc(NC(C)=O)cc1-c1nn([C@H](C)c2ccc(Cl)cc2)c(=O)c2c(C)noc12 [Example 40, N-(3-{5-[(1R)-1-(4-chlorophenyl)ethyl]-3-methyl-4-oxo-4,5-dihydro[1,2]oxazolo[4,5-d]pyridazin-7-yl}-4-methoxyphenyl)acetamide] | < 5.00
9 | Cc1noc2c(-c3ccc(F)cc3)nn(Cc3ccc(Cl)c(C(F)(F)F)c3)c(=O)c12 [Example 28, 5-[4-chloro-3-(trifluoromethyl)benzyl]-7-(4-fluorophenyl)-3-methyl[1,2]oxazolo[4,5-d]pyridazin-4(5H)-one] | 5.46
10 | CC(=O)Nc1cccc(-c2nn([C@H](C)c3ccc(Cl)cc3)c(=O)c3c(C)noc23)c1 [Example 34, N-(3-{5-[(1R)-1-(4-chlorophenyl)ethyl]-3-methyl-4-oxo-4,5-dihydro[1,2]oxazolo[4,5-d]pyridazin-7-yl}phenyl)acetamide] | 5.32
11 | COc1ccc(-c2nn(Cc3ccc(Cl)cc3)c(=O)c3c(C)noc23)cc1 [Example 2, 5-(4-chlorobenzyl)-7-(4-methoxyphenyl)-3-methyl[1,2]oxazolo[4,5-d]pyridazin-4(5H)-one] | < 5.00
12 | Cc1nn([C@H](C)c2ccc(Cl)cc2)c(=O)c2c(C)noc12 (single isomer, unassigned) [Example 58] | < 5.00

Next, values leading:

Row | pEC50 | SMILES
13 | 5.20 | CC(=O)Nc1cccc(-c2nn(C(C)c3ccc(Cl)cc3)c(=O)c3c(C)noc23)c1 (stereo not drawn) [Example 78, N-(3-{5-[1-(4-chlorophenyl)ethyl]-3-methyl-4-oxo-4,5-dihydro[1,2]oxazolo[4,5-d]pyridazin-7-yl}phenyl)acetamide]
14 | 5.42 | Cc1noc2c(-c3cncnc3)nn(C(C)c3ccc(Cl)cc3)c(=O)c12 (stereo not drawn) [Example 113, 5-[1-(4-chlorophenyl)ethyl]-3-methyl-7-(pyrimidin-5-yl)[1,2]oxazolo[4,5-d]pyridazin-4(5H)-one]
15 | 5.58 | CC(=O)Nc1cccc(-c2nn(Cc3cc(C(F)(F)F)ccc3F)c(=O)c3c(C)noc23)c1 [Example 85, N-(3-{5-[2-fluoro-5-(trifluoromethyl)benzyl]-3-methyl-4-oxo-4,5-dihydro[1,2]oxazolo[4,5-d]pyridazin-7-yl}phenyl)acetamide]
16 | 6.30 | Cc1noc2c(-c3cccc(N)c3)nn(C(C)c3ccc(Cl)cc3)c(=O)c12 (stereo not drawn) [Example 126, 7-(3-aminophenyl)-5-[1-(4-chlorophenyl)ethyl]-3-methyl[1,2]oxazolo[4,5-d]pyridazin-4(5H)-one]
17 | 5.17 | Cc1noc2c(-c3cccnc3)nn(Cc3ccc(Cl)cc3)c(=O)c12 [Example 120, 5-(4-chlorobenzyl)-3-methyl-7-(pyridin-3-yl)[1,2]oxazolo[4,5-d]pyridazin-4(5H)-one]
18 | 5.86 | CCc1nn([C@@H](c2ccccc2)c2ccc(Cl)cc2)c(=O)c2c(CC)noc12 (single isomer, unassigned) [Example 89]
19 | 6.07 | Cc1noc2c(-c3cnc4cc[nH]c4c3)nn(C(C)c3ccc(Cl)cc3)c(=O)c12 (stereo not drawn) [Example 116, 5-[1-(4-chlorophenyl)ethyl]-3-methyl-7-(1H-pyrrolo[3,2-b]pyridin-6-yl)[1,2]oxazolo[4,5-d]pyridazin-4(5H)-one]
20 | 5.43 | COc1ccccc1-c1nn(Cc2ccc(OC)c(C(F)(F)F)c2)c(=O)c2c(C)noc12 [Example 101, 7-(2-methoxyphenyl)-5-[4-methoxy-3-(trifluoromethyl)benzyl]-3-methyl[1,2]oxazolo[4,5-d]pyridazin-4(5H)-one]
21 | 5.39 | CCn1nccc1-c1nn(C(C)c2ccc(Cl)cc2)c(=O)c2c(C)noc12 (stereo not drawn) [Example 115, 5-[1-(4-chlorophenyl)ethyl]-7-(1-ethyl-1H-pyrazol-5-yl)-3-methyl[1,2]oxazolo[4,5-d]pyridazin-4(5H)-one]
22 | 5.42 | Cc1nn(C(C)c2ccc(Cl)cc2)c(=O)c2c(C)noc12 (stereo not drawn) [Example 114, 5-[1-(4-chlorophenyl)ethyl]-3,7-dimethyl[1,2]oxazolo[4,5-d]pyridazin-4(5H)-one]
23 | 7.25 | CNC(=O)c1ccc(OC)c(-c2nn(C(C)c3ccc(Cl)cc3)c(=O)c3c(C)noc23)c1 (stereo not drawn) [Example 119, 3-{5-[1-(4-chlorophenyl)ethyl]-3-methyl-4-oxo-4,5-dihydro[1,2]oxazolo[4,5-d]pyridazin-7-yl}-4-methoxy-N-methylbenzamide]
24 | 5.68 | CCc1noc2c(-c3cccc(NC(C)=O)c3)nn(Cc3ccc(Cl)cc3)c(=O)c12 [Example 129, N-{3-[5-(4-chlorobenzyl)-3-ethyl-4-oxo-4,5-dihydro[1,2]oxazolo[4,5-d]pyridazin-7-yl]phenyl}acetamide]
25 | 6.07 | COc1ccc(OC)c(-c2nn(Cc3ccc(Cl)cc3)c(=O)c3c(C)noc23)c1 [Example 102, 5-(4-chlorobenzyl)-7-(2,5-dimethoxyphenyl)-3-methyl[1,2]oxazolo[4,5-d]pyridazin-4(5H)-one]
26 | 5.76 | COc1ccc(OC)c(-c2nn(Cc3ccc(C(F)(F)F)cc3)c(=O)c3c(C)noc23)c1 [Example 95, 7-(2,5-dimethoxyphenyl)-3-methyl-5-[4-(trifluoromethyl)benzyl][1,2]oxazolo[4,5-d]pyridazin-4(5H)-one]
27 | 6.36 | COc1ccc(NC(C)=O)cc1-c1nn(C(C)c2ccc(C(F)(F)F)cc2)c(=O)c2c(C)noc12 (stereo not drawn) [Example 103, N-[4-methoxy-3-(3-methyl-4-oxo-5-{(1)-1-[4-(trifluoromethyl)phenyl]ethyl}-4,5-dihydro[1,2]oxazolo[4,5-d]pyridazin-7-yl)phenyl]acetamide]
